Laboratory results from US20230054887A1, “SWEETENING AND TASTE-MASKING COMPOSITIONS, PRODUCTS AND USES THEREOF” (HEALTHTECH BIO ACTIVES, S.L.U., priority 2017, published 2023).

Experiments:
Assay type in all cases: in vivo
[1] = Taste profile by calibrated taste panel at concentrations equisweet to 3% sucrose; settings: 0- to 5-point scale
Experimental: The overall taste profile achieved with the sweetening composition of the present invention was evaluated and compared with the target taste profile of sucrose.
For this assay, all samples were evaluated at the same sweetness level, so each sample was used at a concentration which was equisweet to 3% sucrose. For each sample, the following parameters were evaluated: • Time to first sweetness detection • Time to maximum sweetness • Lingering (time for the sweetness to disappear) • Off-flavour: menthol, liquorice (any tastes that are different from sweetness) • Mouthfeel (density, i.e., the perceived viscosity in the mouth)
These evaluations were carried out by a calibrated taste panel, and conducted at room temperature.
Each of those parameters was evaluated on a 0- to 5-point scale. The values for sucrose were the reference, and were considered the target to emulate.

[2] = Masking bitterness of quinine, test panel, equibitter solution; settings: 250 ppm quinine
Experimental: The bitter masking effect against quinine was assayed, following an analogous procedure to the one used in Example 10 for paracetamol.
The following substances were assayed: NHDC alone, beta-cyclodextrin alone, a composition comprising NHDC and beta-cyclodextrin in a molar ratio 1:1 (Example F) and a composition comprising NHDC and beta-cyclodextrin in a molar ratio 1:3 (Example G).
Analogously to Example 10, several aqueous solutions were prepared, each containing 250 ppm of quinine and different concentrations of the tested substance, namely, 5, 25, 50, 75 and 100 ppm. For each tested solution, a test panel determined the equibitter quinine solution, and the masking effect was calculated using a formula analogous to formula III (substituting 5000 with […]).
The masking synergies between beta-cyclodextrin and NHDC in Examples F and G were calculated following an analogous procedure to the one disclosed in Example 10. Therefore, using the molecular weight of each component, the amounts of beta-cyclodextrin and NHDC contained in each amount of the combinations of Examples F and G were calculated and, then, the antibittering contribution of each component was calculated on the basis of the data of Table 19. The expected masking effect was calculated as the sum of the contributions of each component, and, finally, the masking synergy was calculated (using Formula IV).

[3] = Sweetening synergy sensory test: concentration equisweet to sucrose reference solutions in water, expert panel; settings: for Relative sweetening power: ratio sucrose concentration / equisweet concentration; for Equisweet concentration: room temperature
Experimental: A sensory test was performed to assess the sweetening synergism achieved with the composition of the invention (Examples A and B), and this effect was also compared to the effect obtained with analogous compositions containing beta-cyclodextrin (Comparative Examples A and B). Further compositions of the present invention (Examples C, D and E) were also assessed in this sensory test.
A group of expert panellists in sweet descriptors evaluated the sweetness of the different compositions as well as that of the ingredients NHDC, beta-cyclodextrin and gamma-cyclodextrin used alone.
Each evaluated sweetening agent was dissolved in water at different concentrations, at room temperature. The panel then determined, for each product, the concentration that was equisweet to the reference solutions of 1% and 3% sucrose in water. The results are summarized in Table 3 (Examples A and B are abbreviated as Ex. A and Ex. B, respectively, and the Comparative Examples A and B are abbreviated as Comp. A and Comp. B, respectively).
Since beta- and gamma-cyclodextrins are also sweet compounds, the equisweet concentrations of both cyclodextrins were also determined by the test panel to assess their possible contribution to the sweetness of the composition. […] Therefore, as the equisweet concentrations of both cyclodextrins are at least three orders of magnitude larger than those of NHDC, it was concluded that their contribution to the sweetness was negligible.
A more quantitative evaluation of the sweetness synergy provided by the compositions of the present invention was performed by comparing the real measured sweetness of the compositions comprising gamma-cyclodextrin and NHDC with the theoretical sweetness expected from the sum of the individual contribution of each component in the composition.
To this end, the relative sweetening power of each component was first calculated. For comparative purposes, the relative sweetening power of beta-cyclodextrin was also calculated. The relative sweetening power of a given compound, at a given sweetness level, indicates how many times sweeter this compound is than sucrose. It is therefore calculated as the ratio between the concentration of sucrose and the equisweet concentration of each ingredient, for each sweetness level.
From the relative sweetening power of each ingredient, it is possible to calculate the expected sweetness (sucrose equivalence) of a blend of those ingredients, according to Formula I:
Expected sweetness (sucrose equivalence) of a blend C1+C2=Concentration of compound C1×relative sweetening power of compound C1+Concentration of compound C2×relative sweetening power of compound C2
Then, the sweetness synergy of a blend of components can be calculated according to Formula II: […]
As disclosed above in Example 3, the relative sweetening power of a given compound, at a given sweetness level, indicates how many times sweeter than sucrose the compound is, and the value is calculated as the ratio between the concentration of sucrose and the equisweet concentration of the compound.

[4] = Masking bitterness of paracetamol, calibrated test panel, equibitter solution; settings: 5000 ppm paracetamol
Experimental: The bitter masking effect against paracetamol was assayed. The anti-bittering effect was measured as a dose-response profile vs. a solution of paracetamol.
The following substances were assayed: NHDC alone, gamma-cyclodextrin alone and compositions comprising NHDC and gamma-cyclodextrin in a molar ratio 1:3 (Example B), 1.5:1 (Example C), 1:6 (Example D) and 1:10 (Example E).
For evaluating the masking effect of each substance, several aqueous solutions were prepared, each containing 5000 ppm of paracetamol and different concentrations of the tested substance, namely, 5, 25, 50, 75 and 100 ppm.
A calibrated test panel compared each solution with several solutions of paracetamol in water at different concentrations, and determined the equibitter paracetamol solution. The equibitter solution was calculated as the average of all the evaluations of the panel.
The masking effect was then calculated from the reference amount of paracetamol contained in each tested solution (5000 ppm) and the amount of paracetamol in the equibitter solution, using the following formula (Formula III): […]
For calculating the masking synergies between gamma-cyclodextrin and NHDC, first, for each amount of the combination (Examples A-E), using the molecular weight of each component, the amounts of gamma-cyclodextrin and NHDC contained therein were calculated. For example, 100 ppm of Example B contain 13.61 ppm of NHDC and 86.39 ppm of gamma-cyclodextrin. Then, the antibittering contribution of each component in the composition was calculated, on the basis of the data of Table 13. For example, 13.61 ppm of NHDC provide 9.44% masking effect and 86.39 ppm of gamma-cyclodextrin provide 5.46% masking effect (the antibittering effects for each specific concentration was calculated by interpolation of the data points in Table 13). Therefore, the expected masking effect is calculated as the sum of the contributions of each component. For example, the expected masking effect of 100 ppm of Example B is 14.90 (i.e., 9.44 plus 5.46).
Finally, the masking synergy is calculated using Formula IV: […]
The masking effect of Examples C (NHDC:gCD 1.5:1), D (NHDC:gCD 1:6) and E (NHDC:gCD 1:10) was also evaluated. Aqueous solutions were prepared, each one of them containing 5000 ppm of paracetamol and different concentrations of each one of the tested formulations Ex. C-E, namely, 25 and 50 ppm. Results are disclosed in Tables 15 to 17.

[5] = equisweet to 1% sucrose in water
[6] = equisweet to 3% sucrose in water

SMILES	Lingering [1]	Mouthfeel (density) [1]	Off-flavour: menthol, licorice [1]	Time to first sweetness [1]	Time to maximum sweetness [1]	Total sweetness [1]	Masking effect (real) ([2]; tested substance 5 ppm)	Masking effect (real) ([2]; tested substance 25 ppm)	Masking effect (real) ([2]; tested substance 50 ppm)	Masking effect (real) ([2]; tested substance 75 ppm)	Masking effect (real) ([2]; tested substance 100 ppm)	Relative sweetening power ([3]; 1% sucrose level)	Relative sweetening power ([3]; 3% sucrose level)	Equisweet concentration [3, 5]	Equisweet concentration [3, 6]	Masking effect (real) ([4]; tested substance 5 ppm)	Masking effect (real) ([4]; tested substance 25 ppm)	Masking effect (real) ([4]; tested substance 50 ppm)	Masking effect (real) ([4]; tested substance 75 ppm)	Masking effect (real) ([4]; tested substance 100 ppm)
OC[C@H]1O[C@@](CO)(O[C@H]2O[C@H](CO)[C@@H](O)[C@H](O)[C@H]2O)[C@@H](O)[C@@H]1O [Sucrose, sucrose]	2.00	4.00	0.00	1.00	2.00	5.00														
OC[C@H]1O[C@@H]2O[C@H]3[C@H](O)[C@@H](O)[C@@H](O[C@H]4[C@H](O)[C@@H](O)[C@@H](O[C@H]5[C@H](O)[C@@H](O)[C@@H](O[C@H]6[C@H](O)[C@@H](O)[C@@H](O[C@H]7[C@H](O)[C@@H](O)[C@@H](O[C@H]8[C@H](O)[C@@H](O)[C@@H](O[C@H]1[C@H](O)[C@H]2O)O[C@@H]8CO)O[C@@H]7CO)O[C@@H]6CO)O[C@@H]5CO)O[C@@H]4CO)O[C@@H]3CO [bCD, Beta-Cyclodextrin]							0.00%	6.67%	11.67%	16.67%	13.33%	0.8333	0.4286	12000 ppm	70000 ppm					
OC[C@H]1O[C@@H]2O[C@H]3[C@H](O)[C@@H](O)[C@@H](O[C@H]4[C@H](O)[C@@H](O)[C@@H](O[C@H]5[C@H](O)[C@@H](O)[C@@H](O[C@H]6[C@H](O)[C@@H](O)[C@@H](O[C@H]7[C@H](O)[C@@H](O)[C@@H](O[C@H]8[C@H](O)[C@@H](O)[C@@H](O[C@H]9[C@H](O)[C@@H](O)[C@@H](O[C@H]1[C@H](O)[C@H]2O)O[C@@H]9CO)O[C@@H]8CO)O[C@@H]7CO)O[C@@H]6CO)O[C@@H]5CO)O[C@@H]4CO)O[C@@H]3CO [gCD, gamma-cyclodextrin]												0.4000	0.3529	25000 ppm	85000 ppm	1.00%	2.00%	4.00%	5.00%	6.00%
